Test results published in article PMC2360332 (British Journal of Cancer, 2007).
Like-named read-outs stand apart in the source and are kept apart here.

Assays:
immature mouse uterus = experiment: Immature mouse uterine growth assay; assay type: in vivo, Swiss mice; conditions: uteri harvested 22 h later, five mice per group; for Growth of immature mouse uterus (in words): single agent i.p., Tam 1 μg or AFPep 10 μg
Description: Control mice received the vehicle. Twenty-two hours later, uteri were harvested, trimmed free of connective tissue, and weighed. Uterine weights were normalised to donor mouse body weight. There were five replicate mice per group.
Twenty-two hours after treatment, uteri were harvested, weighed, and normalised to mouse body weight.

oestrogen receptor (ER) = experiment: Inhibition of binding of [^3H]E2 to oestrogen receptor (rabbit uterine cytosol); conditions: rabbit uterine cytosol 2.5 mg protein ml^−1, 20 μl of 10 nM 6,7-[^3H]E2, overnight at 4°C, pH 7.4, dextran-coated charcoal; triplicate
Description: Rabbit uteri (Pel-Freez Biological, Rogers, AR, USA) were used as a source of ER. Uteri were pulverised in a stainless-steel impact mortar under liquid nitrogen and homogenised (20% w/v) in buffer (10 mM Tris, pH 7.4, 1.5 mM EDTA, 10% glycerol, 10 mM monothioglycerol, and 10 mM sodium molybdate) on ice. Centrifugation (50 000 g) for 1 h yielded cytosol, which was adjusted with buffer to 2.5 mg protein ml^−1. All incubations were carried out in triplicate, each containing 100 μl of cytosol, 20 μl of 10 nM 6,7-[^3H]oestradiol (6,7-[^3H]E2), and 80 μl of antagonist. After incubation overnight at 4°C, tubes received 300 μl of dextran-coated charcoal suspension; tubes were agitated for 15 min, and then centrifuged (1000 g) for 15 min.
Rabbit uterine cytosol was used as a source of ER. Test agents (80 μl) at the final concentrations indicated were incubated in triplicate with 100 μl of cytosol, and 20 μl of 10 nM 6,7-[^3H]E2 (50 Ci mmol^−1). The concentration of the [^3H]E2 complex with receptor in the presence of the test agent is expressed as a percentage of the amount of complex formed in the absence of test agent.

[1] = system: MCF-7 human breast cancer xenografts; experiment: MCF-7 human breast cancer xenograft under kidney capsule of SCID mice; assay type: in vivo, human (cells), SCID mice (host); conditions: E2 supplementation, five mice per group
Description: Ten million MCF-7 human breast cancer cells were harvested from culture, centrifuged into a pellet, solidified into a fibrin clot, and implanted under the kidney capsule of SCID mice as described previously ([Bennett et al, 1985], [2002], [2006]; [Mesfin et al, 2001]; [Parikh et al, 2005]). Oestrogen supplementation was accomplished by s.c. implantation of a 5 mm silastic tubing capsule containing solid E2 inserted on the day of tumour implantation. […] The tumour-bearing kidney was exposed during survival laparotomy at 14 and 28 days after implantation and tumour size was measured using a dissecting microscope equipped with an ocular micrometer, noting the long (D) and short (d) diameters of the tumour. Five replicate mice were included in each treatment group. Mean tumour volume (0.52d^2D) was calculated for each group, and used for display of growth curves. Significance of differences between groups was tested using the one-sided Wilcoxon rank sum test.
Pieces of MCF-7 tumour were implanted under the kidney capsule of SCID mice. Oestradiol was provided via an E2-containing silastic tubing subcutaneous implant.

[2] = system: T47D human breast cancer cells; experiment: Growth of T47D human breast cancer cells in culture (7 days, viable cell count); assay type: cell-based; conditions: for Inhibition of basal (no E2) growth of T47D cells (in words): 10^−8 to 10^−5 M, data not shown; for Inhibition of E2-stimulated growth of T47D cells, single agent (in words): E2 10^−9 M added 1 h after agent, daily for 7 days, agent used alone, concentration–response in Figure 1A
Description: The MCF-7 cells were maintained in monolayer culture in Dulbecco's modification of Eagle's medium (DMEM) supplemented with 5% fetal bovine serum, glutamine (2 mM), nonessential amino acids (1%), and bovine insulin (1 μg ml^−1). The T47D human breast cancer cells were maintained in monolayer culture in RPMI-1640 medium supplemented with 10% fetal bovine serum, 100 IU ml^−1 penicillin, 100 μg ml^−1 streptomycin, 0.25 μg ml^−1 amphotericin B, and 8 μg ml^−1 bovine insulin in T-75 flasks with 2–3 medium changes per week. Cells were maintained at 37°C in an atmosphere of 5% CO2, 95% air. To evaluate the oestrogen-stimulated growth of these cells, they were released from monolayer using 0.25% trypsin/0.53 mM EDTA and suspended in oestrogen-free medium comprised of DMEM (high glucose, phenol red-free), supplemented with 10% charcoal-stripped bovine calf serum, 2 mM glutamine, 100 IU ml^−1 penicillin, and 100 μg ml^−1 streptomycin. One millilitre containing 1.2 × 10^5 cells was seeded into each well of a 24-well plate coated with collagen IV (BD Biosciences, Bedford, MA, USA). […] Control wells received the vehicle. Medium was changed every other day before treatment. One day after the last treatment, cells were trypsinised and resuspended in oestrogen-free medium, and counted using a haemacytometer following dilution with trypan blue. Viable cell number is reported.
T47D (1 × 10^5) cells were seeded into wells of collagen-coated plates in oestrogen-free medium. Medium was changed daily. Twenty-four hours after seeding, AFPep and/or Tam were added. One hour later E2 (10^−9 M) was added. Cells were treated daily for 7 days after which cells were harvested and counted in a hemacytometer. Mean viable cell number of six replicate wells ±s.e. was determined. (A) Concentration–response curve of each agent alone. Inhibition (%) of E2-stimulated growth is reported. (▪) Tam; (▴) AFPep. […] Mean viable cell number is reported.

[3] = system: MNU-induced breast cancers in rats; experiment: Prevention of MNU-induced mammary cancers in rats; conditions: for Inhibition of tumour formation (in words): Tam 6.25 μg animal^−1 day^−1 or higher, AFPep 270 μg animal^−1 day^−1; for Incidence (percent of rats with one or more tumours when killed, approximately 120 days after MNU): 20 days from 10 days after MNU 50 mg kg^−1, n=30 rats, control 78%; for Volume (sum of the volumes of tumours in each group) / Multiplicity (total number of tumours/number of rats) / Latency (mean number of tumour-free days±s.d.): 20 days; for Volume (sum of the volumes of tumours in each group): control 69.0; for Multiplicity (total number of tumours/number of rats): control 2.1; for Latency (mean number of tumour-free days±s.d.): control 80±31
Description: Female rats were housed three per cage in a room maintained at 22±1°C, and artificially lighted for 12 h per day. At 50 days of age, rats received a single injection of MNU (50 mg kg^−1 body weight) or vehicle in the jugular vein. N-methyl-N-nitrosourea was administered to animals in the various treatment groups according to a predetermined randomisation chart, so as to ensure uniform distribution of the carcinogen across the groups. […] A control group of animals received daily 0.2 ml s.c. injections of saline for the same time period as AFPep administration and experienced the maximal number of tumours. Starting 30 days after MNU treatment, all rats were palpated weekly for detection of mammary tumours, noting number, location, and size. Tumour burden was determined noninvasively using calipers to measure the long (D) and short (d) diameter of each tumour. Assuming that tumours were ellipsoid shaped, tumour volume was estimated as (0.52d^2D). Cage activity of all animals was monitored daily for gross signs of toxicity. At necropsy, body weight and organ weights were assessed as indicators of toxicity.
Sprague–Dawley female rats (n=30 rats group^−1) received MNU (50 mg kg^−1) at the age of 50 days. […] Animals were palpated weekly. The incidence of tumours is shown as a function of time after carcinogen treatment.

[4] = Toxicity in MNU-exposed rats (body weight, organ weights, fur texture, cage activity); assay type: in vivo, Sprague–Dawley rats; conditions: for Body weight / Uterine weight / Heart weight: 20 days; for Body weight: control 283±30; for Uterine weight: control 0.54±0.15; for Heart weight: control 1.10±0.14
Description: [Swanson et al, 1997]). […] In the therapy model (human tumour xenografts growing in mice) and in the prevention model (MNU-induced mammary cancers in rats), the toxicity of […]

[5] = system: phosphorylation of ER at serine 118; conditions: cited from earlier work
Description: Mechanistically, AFPep is quite different from Tam. […] In fact, in this study and ...

[6] = design: method as in earlier work; conditions: high doses; ref Mesfin et al, 2001; Bennett et al, 2002, 2006; Parikh et al, 2005; cited from earlier work
[7] = effective single-agent dose: AFPep 10 μg mouse^−1 day^−1 i.p. or Tam 1 μg mouse^−1 day^−1 p.o., over a 30-day period
[8] = suboptimal dose: AFPep 0.1 μg i.p., Tam 0.05 μg p.o. per mouse per day, single agents
[9] = higher dose: AFPep 270 μg/rat/day s.c. or Tam 6.25 μg/rat/day oral gavage
[10] = higher dose: AFPep 270 (marked * P<0.05 vs control) or Tam 6.25 μg/rat/day
[11] = higher dose: AFPep 270 or Tam 6.25 μg/rat/day
[12] = suboptimal dose: AFPep 100 μg/rat/day s.c., Tam 0.05 μg/rat/day oral gavage, or both (100+0.05)
[13] = suboptimal dose: AFPep 100, Tam 0.05, or both (100+0.05) μg/rat/day, AFPep and AFPep+Tam marked * P<0.05 vs control
[14] = suboptimal dose: AFPep 100, Tam 0.05, or both (100+0.05) μg/rat/day
[15] = higher dose: AFPep 270 μg/rat/day

Molecule | Growth of immature mouse uterus (in words) (immature mouse uterus) | Inhibition of binding of [^3H]E2 to ER (in words) (oestrogen receptor (ER)) | Growth of MCF-7 tumour xenografts (in words) [1, 7] | Growth of MCF-7 tumour xenografts (in words) [1, 8] | Inhibition of basal (no E2) growth of T47D cells (in words) [2] | Inhibition of E2-stimulated growth of T47D cells, single agent (in words) [2] | Inhibition of tumour formation (in words) [3] | Incidence (percent of rats with one or more tumours when killed, approximately 120 days after MNU) [3, 9] | Volume (sum of the volumes of tumours in each group) [3, 10] | Multiplicity (total number of tumours/number of rats) [3, 11] | Latency (mean number of tumour-free days±s.d.) [3, 11] | Incidence (percent of rats with one or more tumours when killed, approximately 120 days after MNU) [3, 12] | Volume (sum of the volumes of tumours in each group) [3, 13] | Multiplicity (total number of tumours/number of rats) [3, 14] | Latency (mean number of tumour-free days±s.d.) [3, 14] | Body weight [4, 11] | Uterine weight [4, 14] | Heart weight [4, 14] | Body weight [4, 14] | also measured
CC/C(=C(\c1ccccc1)c1ccc(OCCN(C)C)cc1)c1ccccc1 [Tam, Tamoxifen, reference compound] | stimulates the growth of immature mouse uterus | concentration-dependent inhibition of E2 binding | completely prevented the growth of MCF-7 tumour xenografts | tumour growth occurred, although it was less than tumour growth in nontreated mice | neither Tam nor AFPep inhibited the basal (no E2) growth | inhibited the E2-stimulated growth | significant inhibition of tumour formation | 26% | 70.2 cm^3 | 0.5 tumours/rat | 85 ± 15 days | 73% | 62.4 cm^3 | 1.3 tumours/rat | 95 ± 36 days | 273 ± 28 g | 0.49 ± 0.17 g | 1.12 ± 0.13 g | 282 ± 31 g | Effect on uterine growth (in words) ([4]; rats, low doses, whether or not AFPep was present): no effect on uterine growth; Stimulation of phosphorylation of ER at serine 118 (in words) ([5]; following binding to receptor, ref Chen et al, 2002): stimulates phosphorylation of ER at serine 118
cyclo(EKTOVNOGN) (head to tail) [AFPep] | does not stimulate uterine growth | did not inhibit the binding of [^3H]E2 to ER | completely prevented the growth of MCF-7 tumour xenografts | tumour growth occurred, although it was less than tumour growth in nontreated mice | neither Tam nor AFPep inhibited the basal (no E2) growth | inhibited the E2-stimulated growth | significant inhibition of tumour formation | 40% | 34.5^* cm^3 | 0.5 tumours/rat | 88 ± 16 days | 63% | 39.1^* cm^3 | 1.1 tumours/rat | 97 ± 33 days | 280 ± 29 g | 0.52 ± 0.15 g | 1.12 ± 0.14 g | 285 ± 24 g | Toxicity or side effects in previous work (in words) [6]: no evidence of toxicity or side effects has been detected; Tam-induced growth of immature mouse uterus (in words) (immature mouse uterus; AFPep 10 μg i.p. 1 h before Tam 1 μg i.p., Figure 4 * P<0.05 vs Tam alone, Dunnett's test): significantly inhibits the Tam-induced growth of the immature mouse uterus; Uterine weight [4, 15]: 0.62 ± 0.17 g; Heart weight [4, 15]: 1.09 ± 0.13 g; Effect on body weight, fur texture, cage activity, organ weights (in words) ([4]; rats, therapeutic doses for 2–3 weeks): no effect on body weight, fur texture, or cage activity during the lifespan of the animals, or on organ weights obtained at necropsy; Stimulation of phosphorylation of ER at serine 118 (in words) ([5]; ref Bennett et al, 2006): did not stimulate phosphorylation of ER at serine 118; Inhibition of phosphorylation of ER following ligand binding (in words) ([5]; stated in Discussion as function of AFPep, not measured in this paper): inhibit the phosphorylation of ER that follows ligand binding to ER
